PMC6804080, “Benzoxaboroles—Novel Autotaxin Inhibitors” (Molecules, 2019)
Values after ≈ are worked out from the molar mass of the structure shown. Values joined by “and” are separate entries in the source; they are usually repeats but may differ in a detail not shown here. Identical values can stand only once. Like-named read-outs stand apart in the source and are kept apart here.

Tests used:
[1] = biological target: T1, Autotaxin (ATX) (Homo sapiens, UniProt Q13822); assay: biochemical choline detection assay for ATX inhibition, LysoPC substrate; conditions: for IC50: choline release assay using as a substrate, mean standard deviation from duplicate experiments; for ATX inhibition, range of activity: in words
T1 construct: we added 10 μL of recombinant ATX (2 ng/mL) in a Tris–HCl buffer
Protocol: All 21 new benzoxaboroles derivatives prepared herein were evaluated for ATX inhibition in vitro using a biochemical choline detection assay, combining elements of assays already described in the literature.
[…] Mother plates with serial dilutions of compounds in pure DMSO were prepared from 10 mM DMSO stock solutions. Storplate-384-deep-well-V plates (Perkin Elmer) were also used for mother plate preparation. Compounds were diluted in a DMSO in a ratio of 1:3. An aliquot of 200 nL of compound solution was transferred from the mother plate to the test plate with a Mosquito nanoliter liquid handling system (TTP labtech). The assay was performed in Spectra-Plate-384 TC, transparent, (Perkin Elmer, Cat#6007658) using a 20 µL assay volume. The total final percentage of DMSO in the test media was 1%. Compounds were tested at 11 consecutive three-fold dilutions starting from 50 µM (final concentrations) in duplicate, covering range of 0.0008–50 μM to determine IC50 values. […] After dispensing of compounds directly to the dry plate, we added 10 μL of recombinant ATX (2 ng/mL) in a Tris–HCl buffer (140 mM NaCl, 1mM MgCl2, 5 mM KCl, 3 mM CaCl2, 1 mg/ml bovin serum albumin (BSA, fatty acid free) and 100 mM Tris–HCl, pH 9). […] The above-described solution with dimethyl sulfoxide but without the test compound was used as a control. LysoPC without ATX was used as a control for the autohydrolysis of LysoPC. After 1.5 h of incubation, 20 μL of stop solution and developer was added {Choline oxidase (1.2 U/mL), Peroxidase (1.2 U/mL), TOOS (2.7 mM), 4-Aminoantipyrine (2.7 mM), and EDTA (50 mM)} to the reaction mixture, and absorbance was measured after 30 min of incubation. The absorbance was measured by using Perkin-Elmer EnVision plate reader (λ = 555 nm). Data were analyzed using GraphPad Prism software. The calculation of IC50 data, curves and quality control (QC) analysis was made by using Excel tools and GraphPadPrism software. Briefly, individual concentration–effect curves were generated by plotting the logarithm of the tested concentration of tested compounds (X) vs. corresponding percentage inhibition values (Y) using a least squares (ordinary) fit. […] QC criteria parameters (Z,’ S:B, ΔmP) were checked for every plate.

[2] = Chrom logD determination by gradient HPLC (CHI); assay type: physicochemical; conditions: reversed-phase HPLC, Phenomenex Luna C18 column; pH 7.4, Luna C18 column
Protocol: clogP values were calculated for all compounds using the Percepta software. Chrom logD was determined experimentally using a procedure described in the supplementary data. Furthermore, the correlation between calculated clogP values and experimentally determined Chrom log D values were explored for molecules containing boron functional groups such as boronic acids and benzoxaboroles.
Chrom logD values were determined from the following equation: Chrom logD = 0.0857 × CHI − 2 [39]. Chromatographic hydrophobic index (CHI) values were determined from the gradient retention times (RT). These values approximately corresponded to the volume percentage of organic component in the mobile phase when the compound elutes. CHI values were determined at pH 7.4. Chromatograms were obtained using on Agilent 1100 Series liquid chromatography system with an HPLC diode-array detector (DAD) coupled with a Micromass Quattro micro atmosphere pressure ionization (API) mass spectrometer. The column used for analyses was Phenomenex Luna C18 (50 × 3 mm, 5 µm, 100 Å). The column was maintained at 25 °C. The flow rate was 1.0 mL/min. The mobile phase was composed of 50 mM ammonium acetate in water at pH 7.4 (solvent A) and acetonitrile (solvent B). The solvent gradient condition was initially 0.5% B, and then it increased linearly to 100% B over 3.0 min, remaining at 100% B for 0.5 min, then decreasing linearly to 0% B over 0.2 min followed by an equilibration period of 1.3 min prior to the next injection. The total experimental duration was 5 min. Injection volume was 2.0 µl. Samples temperature was maintained at 15 °C in the autosampler chamber. A group of ten standard compounds having different CHI values was used for calibration of RP-HPLC [40].

[3] = kinetic solubility, turbidimetric method; assay type: physicochemical; conditions: 37 °C, pH 7.4, aqueous buffer, kinetic from dmso stock, Solubility (kinetic solubility range)
Protocol: Turbidimetric solubility allows for a rapid determination of kinetic solubility by using small amounts of the test compound. Assay controls were α-naphtoflavone (low solubility) and sulfaphenazole (expected solubility >100µM). DMSO stock solutions (10 mM) of each compound were first serially diluted 1 in 3 in DMSO and then spiked into an aqueous buffer (100 mM PBS), resulting in 5 following final concentration: 100, 30, 10, 3 and 1 µM (each concentration was tested in duplicate). […] Compound samples were compared to a solvent control in an aqueous buffer (DMSO 1% final concentration), and a significant increase of sample absorbance was considered to have occurred when the absorbance reached a 3-fold standard deviation of the average DMSO absorbance. The calculation of solubility range data was made by Excel tool software. Results are expressed as an estimated solubility range.

[4] = in vitro plasma stability, rat plasma; assay type: in vitro ADME; conditions: after 4 h
Protocol: (§1) The in vitro plasma stability of the test compounds was studied in human and rat plasma with propranolol, benflorex, and eucatropine as control substances. All compounds at final concentrations of 5 μM (0.5% DMSO) were incubated in a phosphate buffer (50 mM, pH 7.4) for 4 h at 37 °C together with plasma. Aliquots were taken at different time points (0, 30, 120 min and 4 h), followed by reaction termination by the addition of CH3CN:CH3OH 2:1 v/v., which contained diclofenac and warfarin as internal standards (IS). Samples were then centrifuged (at 1600 rpm at 4 °C for 30 min), and the resulting supernatants were subjected to LC/MS/MS analysis. Results are expressed as % remaining.

[5] = in vitro plasma stability, human plasma; assay type: in vitro ADME; conditions: after 4 h
Protocol: as §1

[6] = metabolic stability in rat liver microsomes; assay type: in vitro ADME
Protocol: (§2) Metabolic stability was assessed in rat and human liver microsomes, with testosterone and propranolol as positive controls. All compounds, at a final concentration of 1 μM (0.03% DMSO), were incubated in a phosphate buffer (50 mM, pH 7.4) for 60 min at 37 °C, together with liver microsomes in the absence and presence of NADPH generating system (nicotinamide adenine dinucleotide phosphate (NADP, 2 mM), glucose-6-phosphate (20 mM), glucose-6-phosphate dehydrogenase (6U) and magnesium chloride (2 mM)). Aliquots were taken at different time points (0, 10, 20, 30, 45 and 60 min), followed by reaction termination by addition of CH3CN:CH3OH 2:1 v/v, containing diclofenac as internal standard (IS). Samples were then centrifuged (at 2000 rpm at 4 °C for 30 min), and resulting supernatants were subjected to LC/MS/MS analysis. The in vitro half-life was calculated in GraphPadPrism software from % remaining vs. time regression using non-linear regression fit. In vitro intrinsic clearance, expressed as mL/min/g liver, was determined from in vitro half-life and normalized for the protein concentration in the incubation mixture, assuming a 52.5 mg/g liver.

[7] = metabolic stability in human liver microsomes; assay type: in vitro ADME
Protocol: as §2

[8] = plasma protein binding, equilibrium dialysis, rat plasma; assay type: in vitro ADME; conditions: pH 7.4, rat plasma
Protocol: (§3) Plasma protein binding was measured using the equilibrium dialysis technique. Positive controls included in this assay were: Acebutolol (low binding) and nicardipine (very high binding). The assay was performed in a 96-well Teflon dialysis unit, where each well consisted of two chambers separated by a dialysis membrane. Plasma (human and rat, commercially obtained from Seralab) spiked with each compound (final concentration: 5 µM, 0.5% DMSO) were added to one chamber, and a blank buffer solution (60 mM Na2HPO4/14 mM KH2PO4/70 mM NaCl; pH 7.4) was added to the other side of the well. Each compound was analyzed in duplicate, for 4 h at 37 °C. After 4 h, both the plasma (free and bound fraction) and buffer (only free fraction) side of the well were sampled, matrix matched, then precipitated with a STOP solution (CH3CN:CH3OH 2:1 v/v, containing diclofenac as internal standard), and centrifuged at 2000 rpm for 30 min (+4 °C). The resulting supernatants were analyzed by LC-MS/MS. The fraction bound was calculated as the concentration difference (analyte vs. internal standard peak area ratio) in the plasma and buffer sides divided by the total concentration in the plasma side. Sampling was also performed from spiked plasma at t = 0 min in order to determine recovery, i.e., % of compound detected at t = 4 h in both the plasma and buffer chambers divided by the compound detected at t = 0 min.

[9] = plasma protein binding, equilibrium dialysis, human plasma; assay type: in vitro ADME; conditions: pH 7.4, read-out: PPB: fraction bound, human (converted)
Protocol: as §3

[10] = tested on: ATX; conditions: read-out: reported activity in in vitro LPC choline release assay; cited from earlier work
[11] = tested on: LPA plasma levels; conditions: cited from earlier work
[12] = tested on: A2058 human melanoma cells; conditions: dose-dependent manner; cited from earlier work
[13] = cited from earlier work
[14] = tested on: glioblastoma cell lines; parameters: method as in PMID 30462853; conditions: cited from earlier work
[15] = tested on: glioma tumor; parameters: method as in PMID 30462853; conditions: in vivo; cited from earlier work
[16] = parameters: method as in PMID 23688339; conditions: cited from earlier work
[17] = tested on: ATX; parameters: method as in PMID 23688339; conditions: read-out: IC50 (inhibitory properties); cited from earlier work
[18] = read-out: PPB: fraction bound, rat (converted)
[19] = mice, intravenous administration 1 nmol/g

SMILES | IC50 [1] [nM] | ATX inhibition, range of activity [1] | chromatographic logD [2] | solubility kinetic at 1 h [3] [µM] | PS (plasma stability), rat [4] | PS (plasma stability), human [5] [%remaining] | LMS: predicted in vivo hepatic clearance, rat [6] [%LBF] | LMS: predicted in vivo hepatic clearance, human [7] [%LBF] | fraction unbound at 4 h, 5 µM [8, 18] | fraction unbound at 4 h, 5 µM [9] | LPA in the in vivo study [11] | half-life in vivo [13] | also measured
O=C(OCc1cc(Cl)cc(Cl)c1)N1CCN(C2CCN(C(=O)c3ccc4c(c3)B(O)OC4)C2)CC1 (centres unmarked) [Compound 30, (3,5-dichlorophenyl)methyl 4-[1-(1-hydroxy-3H-2,1-benzoxaborole-6-carbonyl)pyrrolidin-3-yl]piperazine-1-carboxylate] | 180 ± 40 | nanomolar range | 4.52 | > 100 | 64.5 %remaining | 66.5 | 86 | 82 | 0.012 | 0.016 | – | – | –
O=C1S/C(=C\c2ccc(OCc3cccc(B(O)O)c3)cc2)C(=O)N1Cc1ccc(F)cc1 [HA130] | – | – | – | – | – | – | – | – | – | – | lowering LPA significantly | less than five | IC50 [10]: 28 nM; LPA levels in the plasma [11, 19]: rapid decrease of LPA levels; toxicity [11, 19]: no overt toxicity issues observed; ATX-mediated migration of A2058 human melanoma cells [12]: inhibited
O=C(CCN1CCN(C(=O)OCc2cc(Cl)cc(Cl)c2)CC1)c1ccc2[nH]c(=O)oc2c1 [PF-8380] | – | – | – | – | – | – | – | – | – | – | – | – | anti-invasive effect [14]: significant anti-invasive effect; glioma tumor growth progression [15]: delaying simultaneously glioma tumor growth progression
O=C1S/C(=C\c2ccc(OCc3ccc(B(O)O)cc3)cc2)C(=O)N1Cc1ccc(F)cc1 [HA155, reference compound] | – | – | – | – | 65.7 %remaining | 42.9 | < 30 | 54 | 0.001 | < 0.001 | lowering LPA significantly | less than five | fraction unbound at 4 h, 5 µM ([8]; read-out: fraction unbound, rat plasma): 0.004; Solubility, value taken from literature [16]: 6.8 µM (≈ 3.15 µg/mL)
O=C(OCc1cc(Cl)cc(Cl)c1)N1CCN(C2CN(C(=O)c3ccc4c(c3)B(O)OC4)C2)CC1 [Compound 37, (3,5-dichlorophenyl)methyl 4-[1-(1-hydroxy-3H-2,1-benzoxaborole-6-carbonyl)azetidin-3-yl]piperazine-1-carboxylate] | 130 ± 120 | nanomolar range | 4.58 | 30 to 100 (≈ 15.1 to 50.4 µg/mL) | 71.2 %remaining and 72.2 %remaining | 79.1 | 62 | 85 | 0.016 | 0.021 | – | – | –
O=C1N=C(N2CCN(Cc3cccc(B(O)O)c3)CC2)SC1=Cc1ccc(Cl)c(Cl)c1 [Compound 3BoA] | – | – | – | – | – | – | – | – | – | – | – | – | IC50 [17]: 13 nM; LPA plasma levels ([11]; mice, 4 mg/kg i.v. injection): significantly decreases LPA plasma levels (almost to zero); plasma LPA levels ([11]; mice, 4 mg/kg intravenous administration): decreases rapidly plasma LPA levels
